Data published in patent US11884710B2, “Peptide compounds and methods of use in wound healing” (priority 2013, dated 2024).

System: PKCδ
Test: Immunofluorescence for PKCδ in HCEC monolayers
Format: cell-based, human
Details: PMA 1 μM; 15 minutes; scratched monolayers
Method: HCEC monolayers were grown to confluency and were scratched with a 10 μl pipette tip or left unscratched, and then the monolayers were treated for 15 minutes with (A-B) buffer, (C-D) PMA (1 μM), (E-F) 250 ng/ml CAP37, and (G-J) 500 ng/ml CAP37. Cells were stained for PKCδ (250 ng/ml; (A-H)), and PKCα (1 μg/ml; (I-J)) and detected using immunofluorescence (4 μg/ml, ALEXA FLUOR® 488 dye (Life Technologies Corp., Grand Island, N.Y.)). […] Scratched monolayers that were treated for 18 hours with CAP37 (250 ng/ml; (L)) or left untreated (K) were stained for PKCδ. […] Scale bars, 20 μm.
Immunofluorescence: HCECs and primary HCECs were cultured on Lab-Tek® II glass chamber slides (Nunc, Rochester, N.Y.) and starved overnight in basal media. For wounding studies, monolayers were scratched with a 10 μl pipette tip or left unscratched and treated with 1 μM phorbol 12-myristate 13-acetate (PMA, Sigma-Aldrich), rCAP37 (25-500 ng/ml), or basal KSFM (Gibco) for 15 minutes. After treatment, the cells were fixed in 4% (v/v) formaldehyde solution (Thermo, Rockford, Ill.) in PBS (Gibco) for 20 minutes at room temperature followed by permeabilization in 0.5% TRITON™-X 100 (Mallinckrodt, St. Louis, Mo.) in PBS for 10 minutes. Remaining formaldehyde was quenched with 0.05 M ammonium chloride (NH4Cl, Sigma-Aldrich, St. Louis, Mo.) in PBS for 10 minutes. […]

With `CCCCCCCCCCCCCC(=O)O[C@@H]1[C@@H](C)[C@@]2(O)[C@@H](C=C(CO)C[C@]3(O)C(=O)C(C)=C[C@@H]23)[C@@H]2C(C)(C)[C@]12OC(C)=O` [PMA, phorbol 12-myristate 13-acetate, reference compound] as the molecule, how does the “PKCδ staining, in words” value read?
Its value is “increased staining”.
